From patent US20180127360A1 (Elé Corporation, priority 2016, published 2018) come the findings set out here.

The structures appear in SMILES notation.

A short description of the data set: Surface tension, du Nouy ring interfacial tensiometer. Type of data set: physicochemical. To be noted: 25° C. The procedure:
Surface tension measurements were taken on solutions made from the mixture prepared in Example 1(C) using a du Nouy ring interfacial tensiometer, equipped with a six-cm circumference platinum-iridium ring. A series of test solutions at different concentrations were prepared and their surface tension measured at 25° C. For each test concentration, the ring is slowly drawn out of the liquid. The surface tension is equal to the force required to draw the ring completely out of the liquid, divided by twice the circumference of the ring. […] The surface tension at the CMC was 29.6 dyne/cm.

Turning to `CCCCCCCCCCCCNCCC(=O)O.N=C(N)NCCCC(N)C(=O)O` [Example 1(C)], the “surface tension at the CMC” value was determined as 29.6 dyne/cm. The “Critical Micelle Concentration (CMC)” value (series of test solutions at different concentrations) was found to be 2.46 millimoles per liter.
